Reference: ChEMBL document CHEMBL6092220 (J Med Chem, 2024)
pIC50: −log10 of the molar value. Calls of active or inactive are those of the source. No cut-off for these calls is given here.

What was measured:
[1] = biological target: Protein cereblon/Signal transducer and activator of transcription 4 (Homo sapiens, UniProt Q96SW2+Q14765); assay: PROTAC activity at STAT4/CRBN in human Pfeiffer cells transfected with STAT3 K658R mutant assessed as reduction in STAT4 level upto 40 uM incubated for 20 hrs by Western blot analysis; assay type: cell-based
[2] = Drug concentration in female CB17 SCID mouse tumor at 5 mg/kg, iv measured at 48 hrs by LC-MS/MS analysis; assay type: ADME, organism-based, Neoplasm; conditions: read-out: Ct
[3] = biological target: T1, Protein cereblon/Signal transducer and activator of transcription 3 (Homo sapiens, UniProt P40763+Q96SW2); assay: PROTAC activity at STAT3/CRBN in human MOLM16 cells assessed as reduction in STAT3 level at 64 nM incubated for 4 hrs by Western blot analysis; assay type: cell-based
[4] = biological target: T2, Protein cereblon/Signal transducer and activator of transcription 3 (Mus musculus) (UniProt P42227+Q8C7D2); assay: In-vivo PROTAC activity at STAT3/CRBN in female CB17 SCID mouse assessed as reduction in STAT3 level tumor at 5 mg/kg, iv measured at 72 hrs by immunobloting analysis; assay type: functional, organism-based; design: scale not given: the % may be the effect or the level left
[5] = Clearance in ICR mouse assessed as hepatic blood flow at 5 mg/kg, iv; assay type: ADME, organism-based; conditions: in vivo
[6] = biological target: T1, Protein cereblon/Signal transducer and activator of transcription 3; assay: PROTAC activity at his-SUMO-tagged STAT3 (127 to 688 residues)/CRBN in human SU-DHL-1 cells assessed as reduction in STAT3 level incubated for 20 hrs by Western blot analysis; assay type: cell-based
[7] = Cmax in Beagle dog at 1 mg/kg, iv; assay type: ADME, organism-based, Canis lupus familiaris; conditions: in vivo
hERG (KCNH2) = hERG (KCNH2) (Homo sapiens, UniProt Q12809); assay: Inhibition of hERG at 30 uM relative to control; assay type: toxicity
[8] = biological target: Protein cereblon/Signal transducer and activator of transcription 6 (Homo sapiens) (UniProt P42226+Q96SW2); assay: PROTAC activity at STAT6/CRBN in human Pfeiffer cells transfected with STAT3 K658R mutant assessed as reduction in STAT6 level upto 40 uM incubated for 20 hrs by Western blot analysis; assay type: cell-based
[9] = Drug concentration in female CB17 SCID mouse spleen at 5 mg/kg, iv measured at 3 hrs by LC-MS/MS analysis; assay type: ADME, organism-based; conditions: read-out: Ct
[10] = Half life in ICR mouse at 5 mg/kg, iv; assay type: ADME, organism-based; conditions: in vivo
[11] = Clearance in Sprague-Dawley rat assessed as hepatic blood flow at 5 mg/kg, iv; assay type: ADME, organism-based; conditions: in vivo
[12] = biological target: T2, Protein cereblon/Signal transducer and activator of transcription 3 (Mus musculus); assay: In-vivo PROTAC activity at STAT3/CRBN in female CB17 SCID mouse assessed as reduction STAT3 level liver at 10 mg/kg, iv measured at 72 hrs by Western blot analysis; assay type: functional, organism-based; design: scale not given: the % may be the effect or the level left
[13] = biological target: T2, Protein cereblon/Signal transducer and activator of transcription 3 (Mus musculus); assay: In-vivo PROTAC activity at STAT3/CRBN in female CB17 SCID mouse assessed as STAT3 depletion spleen at 5 mg/kg, iv measured upto 72 hrs by immunobloting analysis; assay type: functional, organism-based
[14] = biological target: T2, Protein cereblon/Signal transducer and activator of transcription 3 (Mus musculus); assay: In-vivo PROTAC activity at STAT3/CRBN in female CB17 SCID mouse assessed as reduction STAT3 level spleen at 10 mg/kg, iv measured at 72 hrs by Western blot analysis; assay type: functional, organism-based; design: scale not given: the % may be the effect or the level left
[15] = Plasma protein binding in dog assessed as unbound fraction at 10 uM; assay type: ADME, cell-free, Canis lupus familiaris
[16] = Antitumor activity against human MOLM16 cells xenografted in mouse assessed as tumor regression at 10 to 20 mg/kg, iv; assay type: functional, MOLM-16; conditions: dose 10-20 mg/kg
[17] = biological target: T1, Protein cereblon/Signal transducer and activator of transcription 3; assay: PROTAC activity at his-SUMO-tagged STAT3 (127 to 688 residues)/CRBN in human MOLM16 cells assessed as reduction in STAT3 level upto 40 uM incubated for 4 hrs by Western blot analysis relative to control; assay type: cell-based; design: scale not given: the % may be the effect or the level left
[18] = Drug concentration in female CB17 SCID mouse plasma at 5 mg/kg, iv measured at 72 hrs by LC-MS/MS analysis; assay type: ADME, organism-based
[19] = Drug concentration in female CB17 SCID mouse tumor at 5 mg/kg, iv measured at 1 hr by LC-MS/MS analysis; assay type: ADME, organism-based, Neoplasm; conditions: read-out: Ct
[20] = Toxicity in iv dosed mouse assessed as weight gain; assay type: organism-based; conditions: in vivo, dose 5-20 mg/kg
[21] = biological target: T2, Protein cereblon/Signal transducer and activator of transcription 3 (Mus musculus); assay: In-vivo PROTAC activity at STAT3/CRBN in female CB17 SCID mouse assessed as reduction STAT3 level spleen at 10 mg/kg, iv measured at 24 hrs by Western blot analysis; assay type: functional, organism-based; design: scale not given: the % may be the effect or the level left
[22] = biological target: Signal transducer and activator of transcription 6 (Homo sapiens, UniProt P42226); assay: Binding affinity to STAT6 (unknown origin) by FP assay
[23] = biological target: T2, Protein cereblon/Signal transducer and activator of transcription 3 (Mus musculus); assay: In-vivo PROTAC activity at STAT3/CRBN in female CB17 SCID mouse assessed as STAT3 depletion liver at 5 mg/kg, iv measured upto 72 hrs by immunobloting analysis; assay type: functional, organism-based
[24] = Stability in mouse plasma assessed as parent compound remaining at […]; assay type: ADME, cell-free; conditions: read-out: Stability
[25] = Drug concentration in female CB17 SCID mouse spleen at 5 mg/kg, iv measured at 6 hrs by LC-MS/MS analysis; assay type: ADME, organism-based; conditions: read-out: Ct
[26] = biological target: Signal transducer and activator of transcription 4 (Homo sapiens, UniProt Q14765); assay: Binding affinity to STAT4 (unknown origin) by FP assay
[27] = Clearance in Beagle dog assessed as hepatic blood flow at 1 mg/kg, iv; assay type: ADME, organism-based, Canis lupus familiaris; conditions: in vivo
[28] = biological target: Protein cereblon/Signal transducer and activator of transcription 1-alpha/beta (Homo sapiens, UniProt P42224+Q96SW2); assay: PROTAC activity at STAT1/CRBN in human Pfeiffer cells transfected with STAT3 K658R mutant assessed as reduction in STAT1 level upto 40 uM incubated for 20 hrs by Western blot analysis; assay type: cell-based
[29] = Apparent permeability across basolateral to apical side in human Caco-2 cells; assay type: ADME, cell-based
[30] = biological target: Signal transducer and activator of transcription 4 (Homo sapiens) (UniProt Q14765); assay: Binding affinity to STAT4 (unknown origin) assessed as maximum inhibition by FP assay relative to control
[31] = biological target: T1, Protein cereblon/Signal transducer and activator of transcription 3; assay: PROTAC activity at his-SUMO-tagged STAT3 (127 to 688 residues)/CRBN in human HeLa cells assessed as induction of STAT3 degradation incubated for 24 hrs by TECAN SPARK microplate reader analysis; assay type: cell-based
[32] = biological target: T1, Protein cereblon/Signal transducer and activator of transcription 3; assay: PROTAC activity at his-SUMO-tagged STAT3 (127 to 688 residues)/CRBN in human PBMC cells assessed as reduction in STAT3 level at 0.1 to 4000 nM incubated for 20 hrs by Western blot analysis relative to control; assay type: cell-based; conditions: dose 0.1-4000 nM
[33] = biological target: T1, Protein cereblon/Signal transducer and activator of transcription 3; assay: PROTAC activity at his-SUMO-tagged STAT3 (127 to 688 residues)/CRBN in human MOLM16 cells assessed as reduction in STAT3 level at 10 uM incubated for 4 hrs by multiplexed quantitative proteomics analysis relative to control; assay type: cell-based; design: scale not given: the % may be the effect or the level left
[34] = Drug concentration in female CB17 SCID mouse liver at 5 mg/kg, iv measured at 6 hrs by LC-MS/MS analysis; assay type: ADME, organism-based; conditions: read-out: Ct
Cytochrome P450 2D6 = Cytochrome P450 2D6 (Homo sapiens, UniProt P10635); assay: Inhibition of CYP2D6 (unknown origin); assay type: ADME

COC(=O)N1CC[C@H]2CC[C@@H](C(=O)N[C@@H](CCC(N)=O)C(=O)N[C@@H](Cc3ccc(F)c(F)c3)C(=O)N3CCC(CCC#Cc4cccc5c4CN(C4CCC(=O)NC4=O)C5=O)CC3)N2C(=O)[C@@H](NC(=O)c2cc3cc(C(F)(F)P(=O)(O)O)ccc3s2)C1 (stereo partly specified)
Activity [1]: inactive | concentration at 48 h [2]: 1110 ng/g | Activity [3]: Active | Activity [4]: > 90% | QH [5]: 0.1% | DC50 [6]: 10 nM | Cmax [7]: 8860 ng/mL | inhibition at 30 µM (hERG (KCNH2)): 1.1% | Activity [8]: inactive | concentration at 3 h [9]: 1920 ng/g | half-life [10]: 22.1 h | QH [11]: 2.6% | Activity [12]: > 90% | Activity [13]: Active | Activity [14]: > 90% | Fu [15]: 1.7% | Activity [16]: 100% | Activity [17]: > 95% | concentration at 72 h [18]: 8430 ng/mL | concentration at 1 h [19]: 4810 ng/g | Activity [20]: Non-toxic | Activity [21]: > 90% | pIC50 [22]: < 5.00 | Activity [23]: Active | remaining at 2 h [24]: 101% | concentration at 6 h [25]: 1950 ng/g | pIC50 [26]: 6.44 | QH [27]: 2.7% | Activity [28]: inactive | Papp [29]: 0.13 10^-6 cm/s | Imax [30]: 100% | DC50 [31]: 500 nM | Emax [32]: > 95% | Activity [33]: 85% | concentration at 6 h [34]: 3570 ng/g | pIC50 (Cytochrome P450 2D6): < 5.00
